US20230303540A1 (Merck Sharp & Dohme LLC, priority 2020, published 2023)

The compounds below were run against GST-tagged truncated human mutant G2019S LRRK2 (Homo sapiens, UniProt Q5S007, G2019S) (assay: LRRK2 G2019S Km ATP LanthaScreen assay). Details: 134 μM ATP (Km ATP), LRRKtide substrate, mean IC50 values; read-out: LRRK2 pIC50 (converted).
Format: biochemical
Method in brief: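 Compound preincubated 15 min at room temperature with enzyme in pH 8.5 Tris buffer (10 mM MgCl2). Then a 90 min reaction at ambient temperature with 134 μM (Km) ATP and fluorescein-LRRKtide. EDTA stop, Tb anti-phospho antibody TR-FRET; […]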
`Cc1c(Nc2ncc3cc(Cl)c(N4CCC(C)(O)CC4)cc3n2)cnn1C1CC1(F)F` (single isomer, unassigned) [Ex-6.10, 1-(6-chloro-2-{[1-(2,2-(R) or (S)difluorocyclopropyl)-5-methyl-1H-pyrazol-4-yl]amino}quinazolin-7-yl)-4-methylpiperidin-4-ol] was tested, and the IC50 was 0.2 nM. Compound `COC1CCC1n1ncc(Nc2ncc3cc(Cl)c(N4CCC(C)(O)CC4)cc3n2)c1C` (single isomer, unassigned) [Ex-6.16, 1-(6-chloro-2-((1-((1R,2S) or (1S,2R)-2-methoxycyclobutyl)-5-methyl-1H-pyrazol-4-yl)amino)quinazolin-7-yl)-4-methylpiperidin-4-ol] has an IC50 of 1.57 nM. `COC1CCC1n1ncc(Nc2ncc3cc(Cl)c(N4CCC(C)(O)CC4)cc3n2)c1C` (single isomer, unassigned) [Ex-6.17, 1-[6-chloro-2-({1-[(1R,2S) or (1S,2R)-2-methoxycyclobutyl]-5-methyl-1H-pyrazol-4-yl}amino)quinazolin-7-yl]-4-methylpiperidin-4-ol] was tested, and the IC50 was 10.5 nM. Work on `Cc1c(Nc2ncc3cc(Cl)c(N4CCN(C5(C)COCC5O)CC4)cc3n2)cnn1C1CC1` (single isomer, unassigned) [Ex-6.18, (3S,4S) or (3R,4R) 4-(4-{6-chloro-2-[(1-cyclopropyl-5-methyl-1H-pyrazol-4-yl)amino]quinazolin-7-yl}piperazin-1-yl)-4-methyloxolan-3-ol] yielded an IC50 of 0.322 nM. Compound `COC1CCC1n1ncc(Nc2ncc3cc(Cl)c(N4CCC(C)(O)CC4)cc3n2)c1C` (single isomer, unassigned) [Ex-6.19, 1-[6-chloro-2-({1-[(1R,2R) or (1S,2S)-2-methoxycyclobutyl]-5-methyl-1H-pyrazol-4-yl}amino)quinazolin-7-yl]-4-methylpiperidin-4-ol] has an IC50 of 2.17 nM. For `COC1CCC1n1ncc(Nc2ncc3cc(Cl)c(N4CCC(C)(O)CC4)cc3n2)c1C` (single isomer, unassigned) [Ex-6.20, 1-[6-chloro-2-({1-[(1R,2R) or (1S,2S)-2-methoxycyclobutyl]-5-methyl-1H-pyrazol-4-yl}amino)quinazolin-7-yl]-4-methylpiperidin-4-ol], the IC50 was 2.53 nM. `Cc1c(Nc2ncc3cc(Cl)c(N4CCN(C5COCC5O)CC4)cc3n2)cnn1C(C)(C)C#N` (single isomer, unassigned) [Ex-6.21, (3S,4S) or (3R,4R) 2-[4-({6-chloro-7-[4-(4-hydroxyoxolan-3-yl)piperazin-1-yl]quinazolin-2-yl}amino)-5-methyl-1H-pyrazol-1-yl]-2-methylpropanenitrile] was tested, and the IC50 was 0.323 nM. `Cc1c(Nc2ncc3cc(Cl)c(N4CCN(C5(C)COCC5O)CC4)cc3n2)cnn1C1CC1` (single isomer, unassigned) [Ex-6.22, (3S,4S) or (3R,4R) 4-(4-{6-chloro-2-[(1-cyclopropyl-5-methyl-1H-pyrazol-4-yl)amino]quinazolin-7-yl}piperazin-1-yl)-4-methyloxolan-3-ol] showed an IC50 of 33.5 nM. With `Cc1c(Nc2ncc3cc(Cl)c(N4CCN(C5COCC5O)CC4)cc3n2)cnn1C(C)(C)C#N` (single isomer, unassigned) [Ex-6.23, (3S,4S) or (3R,4R) 2-[4-({6-chloro-7-[4-(4-hydroxyoxolan-3-yl)piperazin-1-yl]quinazolin-2-yl}amino)-5-methyl-1H-pyrazol-1-yl]-2-methylpropanenitrile] the IC50 was 13.2 nM. For `Cc1c(Nc2ncc3cc(Cl)c(N4CCN(C5COCC5O)CC4)cc3n2)cnn1C` (single isomer, unassigned) [Ex-6.24, (3S,4S) or (3R,4R) 4-(4-{6-chloro-2-[(1,5-dimethyl-1H-pyrazol-4-yl)amino]quinazolin-7-yl}piperazin-1-yl)oxolan-3-ol], the IC50 was 0.603 nM. Compound `Cc1c(Nc2ncc3cc(Cl)c(N4CCN(C5COCC5O)CC4)cc3n2)cnn1CC(F)F` (single isomer, unassigned) [Ex-6.25, (3S,4S) or (3R,4R) 4-[4-(6-chloro-2-{[1-(2,2-difluoroethyl)-5-methyl-1H-pyrazol-4-yl]amino}quinazolin-7-yl)piperazin-1-yl]oxolan-3-ol] has an IC50 of 0.418 nM. `Cc1c(Nc2ncc3cc(Cl)c(N4CCN(C5COCC5O)CC4)cc3n2)cnn1CC(F)F` (single isomer, unassigned) [Ex-6.26, (3S,4S) or (3R,4R) 4-[4-(6-chloro-2-{[1-(2,2-difluoroethyl)-5-methyl-1H-pyrazol-4-yl]amino}quinazolin-7-yl)piperazin-1-yl]oxolan-3-ol] showed an IC50 of 11.5 nM. `OC1COCC1N1CCN(c2cc3nc(Nc4cnn(C5CC5(F)F)c4Cl)ncc3cc2Cl)CC1` (single isomer, unassigned) [Ex-6.27, (3S,4S) or (3R,4R) 4-[4-(6-chloro-2-{[5-chloro-1-(2,2-(R) or (S)difluorocyclopropyl)-1H-pyrazol-4-yl]amino}quinazolin-7-yl)piperazin-1-yl]oxolan-3-ol] was tested, and the IC50 was 0.27 nM. `Cn1ncc(Nc2ncc3cc(Cl)c(N4CCN(C5(C)COCC5O)CC4)cc3n2)c1Cl` (single isomer, unassigned) [Ex-6.28, (3S,4S) or (3R,4R) 4-(4-{6-chloro-2-[(5-chloro-1-methyl-1H-pyrazol-4-yl)amino]quinazolin-7-yl}piperazin-1-yl)-4-methyloxolan-3-ol] gave an IC50 of 0.381 nM. In the case of `OC1COCC1N1CCN(c2cc3nc(Nc4cnn(C5CC5(F)F)c4Cl)ncc3cc2Cl)CC1` (single isomer, unassigned) [Ex-6.29, (3S,4S) or (3R,4R) 4-[4-(6-chloro-2-{[5-chloro-1-(2,2-(R) or (S)difluorocyclopropyl)-1H-pyrazol-4-yl]amino}quinazolin-7-yl)piperazin-1-yl)oxolan-3-ol], the IC50 was 15.2 nM. `OC1COCC1N1CCN(c2cc3nc(Nc4cnn(C5CC5(F)F)c4Cl)ncc3cc2Cl)CC1` (single isomer, unassigned) [Ex-6.30, (3S,4S) or (3R,4R) 4-[4-(6-chloro-2-{[5-chloro-1-(2,2-(R) or (S)difluorocyclopropyl)-1H-pyrazol-4-yl]amino}quinazolin-7-yl)piperazin-1-yl]oxolan-3-ol] was tested, and the IC50 was 0.9 nM. With `OC1COCC1N1CCN(c2cc3nc(Nc4cnn(C5CC5(F)F)c4Cl)ncc3cc2Cl)CC1` (single isomer, unassigned) [Ex-6.31, (3S,4S) or (3R,4R) 4-[4-(6-chloro-2-{[5-chloro-1-(2,2-(R) or (S)difluorocyclopropyl)-1H-pyrazol-4-yl]amino}quinazolin-7-yl)piperazin-1-yl]oxolan-3-ol] the IC50 was 17.9 nM. With `Cc1c(Nc2ncc3cc(Cl)c(N4CCN(C5COCC5O)CC4)cc3n2)cnn1CC(F)(F)F` (single isomer, unassigned) [Ex-6.32, (3S,4S) or (3R,4R) 4-[4-(6-chloro-2-{[5-methyl-1-(2,2,2-trifluoroethyl)-1H-pyrazol-4-yl]amino}quinazolin-7-yl)piperazin-1-yl]oxolan-3-ol] the IC50 was 0.608 nM. In the case of `CC1(N2CCN(c3cc4nc(Nc5cnn(C6CC6(F)F)c5Cl)ncc4cc3Cl)CC2)COCC1O` (single isomer, unassigned) [Ex-6.33, (3S,4S) or (3R,4R) 4-[4-(6-chloro-2-{[5-chloro-1-(2,2-(R) or (S)difluorocyclopropyl)-1H-pyrazol-4-yl]amino}quinazolin-7-yl)piperazin-1-yl]-4-methyloxolan-3-ol], the IC50 was 0.212 nM. Compound `CC1(N2CCN(c3cc4nc(Nc5cnn(C6CC6(F)F)c5Cl)ncc4cc3Cl)CC2)COCC1O` (single isomer, unassigned) [Ex-6.34, (3S,4S) or (3R,4R) 4-[4-(6-chloro-2-{[5-chloro-1-(2,2-(R) or (S)difluorocyclopropyl)-1H-pyrazol-4-yl]amino}quinazolin-7-yl)piperazin-1-yl]-4-methyloxolan-3-ol] has an IC50 of 10.6 nM. Work on `CC1(N2CCN(c3cc4nc(Nc5cnn(C6CC6(F)F)c5Cl)ncc4cc3Cl)CC2)COCC1O` (single isomer, unassigned) [Ex-6.35, (3S,4S) or (3R,4R) 4-[4-(6-chloro-2-{[5-chloro-1-(2,2-(R) or (S)difluorocyclopropyl)-1H-pyrazol-4-yl]amino}quinazolin-7-yl)piperazin-1-yl]-4-methyloxolan-3-ol] yielded an IC50 of 20.8 nM. `Cn1ncc(Nc2ncc3cc(Cl)c(N4CCN(C5(C)COCC5O)CC4)cc3n2)c1Cl` (single isomer, unassigned) [Ex-6.36, (3S,4S) or (3R,4R) 4-[4-{6-chloro-2-[(5-chloro-1-methyl-1H-pyrazol-4-yl)amino]quinazolin-7-yl}piperazin-1-yl)-4-methyloxolan-3-ol] showed an IC50 of 11.2 nM. `Cc1c(Nc2ncc3cc(Cl)c(N4CCN(C5COCC5O)CC4)cc3n2)cnn1CC(F)(F)F` (single isomer, unassigned) [Ex-6.37, (3S,4S) or (3R,4R) 4-[4-(6-chloro-2-{[5-methyl-1-(2,2,2-trifluoroethyl)-1H-pyrazol-4-yl]amino}quinazolin-7-yl)piperazin-1-yl]oxolan-3-ol] showed an IC50 of 6.35 nM. `Cc1c(Nc2ncc3cc(Cl)c(N4CCN(C5(C)COCC5O)CC4)cc3n2)cnn1C1CC1(F)F` (single isomer, unassigned) [Ex-6.38, (3S,4S) or (3R,4R) 4-[4-(6-chloro-2-{[1-(2,2-(R) or (S)difluorocyclopropyl)-5-methyl-1H-pyrazol-4-yl]amino}quinazolin-7-yl)piperazin-1-yl]-4-methyloxolan-3-ol] showed an IC50 of 0.835 nM. Work on `Cc1c(Nc2ncc3cc(Cl)c(N4CCN(C5COCC5O)CC4)cc3n2)cnn1C1CC1(F)F` (single isomer, unassigned) [Ex-6.39, (3S,4S) or (3R,4R) 4-[4-(6-chloro-2-{[1-(2,2-(R) or (S)difluorocyclopropyl)-5-methyl-1H-pyrazol-4-yl]amino}quinazolin-7-yl)piperazin-1-yl]oxolan-3-ol] yielded an IC50 of 0.65 nM. `Cc1c(Nc2ncc3cc(Cl)c(N4CCN(C5(C)COCC5O)CC4)cc3n2)cnn1C1CC1(F)F` (single isomer, unassigned) [Ex-6.40, (3S,4S) or (3R,4R) 4-[4-(6-chloro-2-{[1-(2,2-(R) or (S)difluorocyclopropyl)-5-methyl-1H-pyrazol-4-yl]amino}quinazolin-7-yl)piperazin-1-yl]-4-methyloxolan-3-ol] showed an IC50 of 0.352 nM.
